# Target: T1, E1 and His-E2 Ubch10 (Homo sapiens, UniProt P22314)
# T1 construct: host or cells: E. coli (His-Ubch10); Sf9 insect cells (E1)
# T1 sequence (P22314 1-1058): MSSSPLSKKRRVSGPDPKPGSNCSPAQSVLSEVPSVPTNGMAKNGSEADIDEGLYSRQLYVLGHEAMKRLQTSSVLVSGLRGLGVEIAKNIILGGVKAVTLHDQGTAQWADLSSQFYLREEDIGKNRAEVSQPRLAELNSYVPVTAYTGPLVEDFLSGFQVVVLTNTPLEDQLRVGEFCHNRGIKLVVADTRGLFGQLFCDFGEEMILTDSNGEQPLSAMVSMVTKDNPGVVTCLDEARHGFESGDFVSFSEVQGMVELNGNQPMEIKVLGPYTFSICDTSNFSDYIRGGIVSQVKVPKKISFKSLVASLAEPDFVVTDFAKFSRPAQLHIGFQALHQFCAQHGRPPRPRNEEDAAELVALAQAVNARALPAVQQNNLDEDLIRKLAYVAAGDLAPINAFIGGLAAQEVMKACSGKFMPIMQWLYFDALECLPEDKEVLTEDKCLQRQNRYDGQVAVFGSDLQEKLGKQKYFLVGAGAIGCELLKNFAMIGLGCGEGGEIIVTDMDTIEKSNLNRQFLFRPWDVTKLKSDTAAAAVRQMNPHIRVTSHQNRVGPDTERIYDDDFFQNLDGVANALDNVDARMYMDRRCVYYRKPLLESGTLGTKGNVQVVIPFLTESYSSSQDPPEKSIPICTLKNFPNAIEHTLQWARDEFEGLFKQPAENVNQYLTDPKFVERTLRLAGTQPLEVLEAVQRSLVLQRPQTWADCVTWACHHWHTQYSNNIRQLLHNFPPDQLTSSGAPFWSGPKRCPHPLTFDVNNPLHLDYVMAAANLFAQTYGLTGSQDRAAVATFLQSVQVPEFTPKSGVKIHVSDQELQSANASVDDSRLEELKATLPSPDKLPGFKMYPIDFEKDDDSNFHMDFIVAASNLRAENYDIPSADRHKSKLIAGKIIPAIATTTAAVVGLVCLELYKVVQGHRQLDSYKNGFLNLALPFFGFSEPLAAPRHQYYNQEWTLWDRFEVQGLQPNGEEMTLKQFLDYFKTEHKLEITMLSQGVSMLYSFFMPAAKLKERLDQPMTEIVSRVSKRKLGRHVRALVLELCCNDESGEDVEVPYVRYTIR
# Experiment: E1 to E2 transfer assay, His-E2 Ubch10, 1.0 μM ATP (low ATP)
# Format: biochemical
# Settings: Table 5, ATP inhibition properties; inhibition measured using IC50 values
# Summary of the method: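 His-Ubch10 (20 ng/well), E1 (10 ng/well) and Flag-ubiquitin (100 ng) reacted 1 h at room temperature on nickel plates in 62.5 mM Tris pH 7.5, 0.75 mM DTT, 1.0 μM ATP with inhibitor. E2-ubiquitin complex detected by anti-Flag/HRP luminescence; IC50 determined.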
row,SMILES,UBC10
1,"Cc1ccc(C(=O)Nc2nc3c(C)cccc3s2)cc1C [Compound 76, 3,4-dimethyl-N-(4-methylbenzo[d]thiazol-2-yl)benzamide]",−− (−− indicates marginal or no inhibition detected with this assay)
2,"COc1ccc2nc(NC(=O)c3ccccc3OC)sc2c1 [Compound 61, 2-methoxy-N-(6-methoxybenzo[d]thiazol-2-yl)benzamide]",−− (−− indicates marginal or no inhibition detected with this assay)
3,"CCc1ccc(C(=O)Nc2nc3ccc(OC)cc3s2)cc1 [Compound 77, 4-ethyl-N-(6-methyoxybenzo[d]thiazol-2-yl)benzamide]",++ (++ indicates inhibition at 50 μM or or less)
4,"COc1ccc2nc(NC(=O)c3cccc4ccccc34)sc2c1 [Compound 55, N-(6-methoxybenzo[d]thiazol-2-yl)-1-naphthamide]",−− (−− indicates marginal or no inhibition detected with this assay)
5,"COc1cccc(C(=O)Nc2nc3ccccc3s2)c1 [Compound 189, N-(benzo[d]thiazol-2-yl)-3-methoxybenzamide]",−− (−− indicates marginal or no inhibition detected with this assay)
6,"COc1ccc2nc(NC(=O)C(C)C)sc2c1 [Compound 47, N-(6-methoxybenzo[d]thiazol-2-yl)isobutyramide]",−− (−− indicates marginal or no inhibition detected with this assay)
7,"COc1ccc2nc(NC(=O)c3sccc3C)sc2c1 [Compound 103, N-(6-methoxybenzo[d]thiazol-2-yl)-3-methylthiophene-2-carboxamide]",++ (++ indicates inhibition at 50 μM or or less)
8,"COc1ccc2nc(NC(=O)c3ccc([N+](=O)[O-])cc3Cl)sc2c1 [Compound 18, 2-chloro-N-(6-methoxybenzo[d]thiazol-2-yl)-4-nitrobenzamide]",−− (−− indicates marginal or no inhibition detected with this assay)
9,"COc1ccc2nc(NC(=O)c3ccccc3)sc2c1 [Compound 32, N-(6-methoxybenzo[d]thiazol-2-yl)benzamide]",++ (++ indicates inhibition at 50 μM or or less)
10,"Cc1ccc(C(=O)Nc2nc3c(C)cccc3s2)cc1 [Compound 71, 4-methyl-N-(4-methylbenzo[d]thiazol-2-yl)benzamide]",−− (−− indicates marginal or no inhibition detected with this assay)
11,"O=C(Nc1nc2ccccc2s1)c1cccc(Cl)c1 [Compound 186, N-(benzo[d]thiazol-2-yl)-3-chlorobenzamide]",−− (−− indicates marginal or no inhibition detected with this assay)
12,"COc1ccc2nc(NC(=O)c3c(F)cccc3F)sc2n1 [Compound 145, 2,6-difluoro-N-(5-methoxythiazolo[5,4-b]pyridin-2-yl)benzamide]",−− (−− indicates marginal or no inhibition detected with this assay)
13,"COc1ccc2nc(NC(=O)c3ccc(C)c([N+](=O)[O-])c3)sc2c1 [Compound 23, N-(6-methoxybenzo[d]thiazol-2-yl)-4-methyl-3-nitrobenzamide]",−− (−− indicates marginal or no inhibition detected with this assay)
14,"O=C(Nc1nc2ccccc2s1)c1ccccc1F [Compound 164, N-(benzo[d]thiazol-2-yl)-2-fluorobenzamide]",−− (−− indicates marginal or no inhibition detected with this assay)
15,"Cc1ccc(C(=O)Nc2nc3ccc([N+](=O)[O-])cc3s2)cc1C [Compound 79, 3,4-dimethyl-N-(6-nitrobenzo[d]thiazol-2-yl)benzamide]",++ (++ indicates inhibition at 50 μM or or less)
16,"CCOc1ccc2nc(NC(=O)c3ccc(NC(C)=O)cc3)sc2c1 [Compound 94, 4-acetamido-N-(6-ethoxybenzo[d]thiazol-2-yl)benzamide]",−− (−− indicates marginal or no inhibition detected with this assay)
17,"COc1ccc2nc(NC(=O)C3CCNCC3)sc2c1 [Compound 44, N-(6-methoxybenzo[d]thiazol-2-yl)piperidine-4-carboxamide]",−− (−− indicates marginal or no inhibition detected with this assay)

row,SMILES,UBC10
1,"COc1ccc2nc(NC(=O)Nc3cccc(Cl)c3Cl)sc2c1 [Compound 124, 1-(2,3-dichlorophenyl)-3-(6-methoxybenzo[d]thiazol-2-yl)urea]",−− (−− indicates marginal or no inhibition detected with this assay)
2,"COc1ccc2nc(NC(=O)c3ccccc3F)sc2c1 [Compound 59, 2-fluoro-N-(6-methoxybenzo[d]thiazol-2-yl)benzamide]",++ (++ indicates inhibition at 50 μM or or less)
3,"O=C(Nc1nc2ccccc2s1)c1ccccc1[N+](=O)[O-] [Compound 169, N-(benzo[d]thiazol-2-yl)-2-nitrobenzamide]",−− (−− indicates marginal or no inhibition detected with this assay)
4,"O=C(Nc1nc2ccccc2s1)c1cccs1 [Compound 89, N-(benzo[d]thiazol-2-yl)thiophene-2-carboxamide]",−− (−− indicates marginal or no inhibition detected with this assay)
5,"COc1ccc2nc(NC(=O)c3cccc(F)c3)sc2c1 [Compound 58, 3-fluoro-N-(6-methoxybenzo[d]thiazol-2-yl)benzamide]",++ (++ indicates inhibition at 50 μM or or less)
6,"COc1ccc2nc(NC(=O)c3cccnc3)sc2c1 [Compound 53, N-(6-methoxybenzo[d]thiazol-2-yl)nicotinamide]",++ (++ indicates inhibition at 50 μM or or less)
7,"O=C(Nc1nc2ccccc2s1)c1cccc(F)c1 [Compound 174, N-(benzo[d]thiazol-2-yl)-3-fluorobenzamide]",−− (−− indicates marginal or no inhibition detected with this assay)
8,"COc1ccc2nc(NC(=O)Nc3ccccc3)sc2c1 [Compound 98, 1-(6-methoxybenzo[d]thiazol-2-yl)-3-phenylurea]",−− (−− indicates marginal or no inhibition detected with this assay)
9,"CC(C)c1ccc(C(=O)Nc2nc3ccccc3s2)cc1 [Compound 222, N-(benzo[d]thiazol-2-yl)-4-isopropylbenzamide]",−− (−− indicates marginal or no inhibition detected with this assay)
10,"COc1ccc2nc(NC(=O)c3cccs3)sc2c1 [Compound 49, N-(6-methoxybenzo[d]thiazol-2-yl)thiophene-2-carboxamide]",++ (++ indicates inhibition at 50 μM or or less)
11,"COc1ccc2nc(NC(=O)c3ccc(Cl)cc3)sc2n1 [Compound 155, 4-chloro-N-(5-methoxythiazolo[5,4-b]pyridin-2-yl)benzamide]",++ (++ indicates inhibition at 50 μM or or less)
12,"O=C(Nc1nc2ccccc2s1)[C@H]1CCN1 [Compound 224, (R)-N-(benzo[d]thiazol-2-yl)azetidine-2-carboxamide]",−− (−− indicates marginal or no inhibition detected with this assay)
13,"COc1ccc2nc(NC(=O)c3ccc(C)cc3)sc2c1 [Compound 21, N-(6-methoxybenzo[d]thiazol-2-yl)-4-methylbenzamide]",++ (++ indicates inhibition at 50 μM or or less)
14,"COc1ccc(C(=O)Nc2nc3ccc(OC)cc3s2)cc1 [Compound 36, 4-methoxy-N-(6-methoxybenzo[d]thiazol-2-yl)benzamide]",++ (++ indicates inhibition at 50 μM or or less)
15,"COc1ccc2nc(NC(=O)Cc3cc4ccccc4n3C)sc2c1 [Compound 40, N-(6-methoxybenzo[d]thiazol-2-yl)-2-(1-methyl-1H-indol-2-yl)acetamide]",++ (++ indicates inhibition at 50 μM or or less)
16,"COc1ccc2nc(NC(=O)c3ccc(Oc4ccccc4)cc3)sc2c1 [Compound 35, N-(6-methoxybenzo[d]thiazol-2-yl)-4-phenoxybenzamide]",−− (−− indicates marginal or no inhibition detected with this assay)
17,"COc1ccc2nc(NC(=O)c3ccc(C(F)(F)F)cc3)sc2n1 [Compound 147, N-(5-methoxythiazolo[5,4-b]pyridin-2-yl)-4-(trifluoromethyl)benzamide]",−− (−− indicates marginal or no inhibition detected with this assay)

# — patent US20080039629A1, “Benzothniazole compositions and their use as ubiquition ligation inhibitors” (RIGEL PHARMACEUTICALS, INC., priority 2003, published 2008)
